Experimental findings from US4753965A, “Method of treating multiple sclerosis with chalcone derivatives” (Merrell Dow Pharmaceuticals, Inc., priority 1987, dated 1988) are described below.

The test system of assay [1] is HeLa cells. In words: Growth inhibition of HeLa cells. It counts as cell-based. The conditions noted are these: Homo sapiens, 72 hours. The method, then:
The compounds of structure 1 inhibit the polymerization of tubulin, and thus the formation of microtubules, that ubiquitous substance of eukaryotic cells which serves a variety of functions, most importantly, to separate the duplicated sets of chromosomes during cell mitosis.
For growth inhibition studies, exponentially growing HeLa cells
were incubated at a density of 1 × 10^5 cells/35 mm dish with
number of dilutions of the test compound in the medium. The
plates were incubated at 37° C. in a CO2 incubation. At the
of 72 hours the cells were collected by trypinization and
counted and the IC50 (.upsilon.g/ml) was determined.

For assay [2], the system named is Experimental Allergic Encephalomyelitis (EAE). In words: Experimental Allergic Encephalomyelitis (EAE) in rats. It counts as in vivo, Lewis strain rats. The method, then: Effect of α-methyl-4-dimethylamino-2',5'-dimethoxychalcone on Experimental Allergic Encephalomyelitis (EAE) in Rats
EAE was induced in rats as described by Rosenthal and Nagra, Proc. Soc.
Lewis strain rats ranging in weight
from 100-200 g were sensitized with encephalitogenic emulsion consisting
of homogenized spinal cord in complete Freund's adjuvant. The test
compound and hydrocortisone (HC) were administered in
polyvinylpyrrolidone vehicle. The test compound was administered i.p.
once daily from day 1 through day 10. HC was administered s.c. once
every other day from day 1 through day 10. The incidence of paralysis
was recorded and mean paralysis time was calculated.

The mark [3] stands for this setting: 6.25 mg/kg i.p. once daily day 1 through day 10.
The mark [4] stands for this setting: 12.5 mg/kg i.p. once daily day 1 through day 10.
[5] abbreviates: 25.0 mg/kg i.p. once daily day 1 through day 10.

SMILES strings stand for the structures. Values after ≈ are worked out from the molar mass of the structure shown.

In assay [1], `COc1ccc(OC)c(C(=O)C(C)=Cc2ccc(N(C)C)cc2)c1` [COMPOUND, 1-(2,5-dimethoxyphenyl)-3-[4-(dimethylamino)phenyl]-2-methyl-2-propen-1-one] registered an IC50 of 0.015 µg/mL (≈ 0.0461 µM). In addition, the figures for the “PARALYSIS TIME (Mean ± S.E.)” value in assay [2] (setting [3]), in assay [2] (setting [4]) and in assay [2] (setting [5]) were 9.7 ± 0.36 days, 9.4 ± 0.26 days and 10.8 ± 0.54 days, respectively. The “PERCENT INCIDENCE OF PARALYSIS” value in assay [2] (setting [3]) is 90%; in assay [2] (setting [4]), 80%; in assay [2] (setting [5]), 40%. Further, the “number paralyzed/total number of animals” value in assay [2] (setting [3]) is given as 9/10; in assay [2] (setting [4]), 8/10; in assay [2] (setting [5]) it was 7/18.
Consider `C[C@]12CCC(=O)C=C1CC[C@@H]1[C@@H]2[C@@H](O)C[C@@]2(C)[C@H]1CC[C@]2(O)C(=O)CO` [HYDROCORTISONE, hydrocortisone, reference compound], for which the “number paralyzed/total number of animals” value in assay [2] (25.0 mg/kg s.c. once every other day day 1 through day 10) was 14/19.

What is called IC50 is the concentration that inhibits the measured activity by half. The low end stands for higher potency, the high end for lower potency.
